Experimental data: ChEMBL document CHEMBL1201862, “PubChem BioAssay data set” (2004)
The source made the active and inactive calls.

Columns and labels:
Streptokinase A = molecular target: T1, Streptokinase A (Streptococcus pyogenes serotype M1, UniProt P10520); experiment: S. pyogenes streptokinase expression inhibitors, potency, dose response, plasminogen activation absorbance, OD405 (AID 1914); assay type: functional, Streptococcus pyogenes M1 GAS;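 note: secreted streptokinase activity via plasminogen activation per viability signal from cell pellet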
T1 sequence (P10520 whole entry): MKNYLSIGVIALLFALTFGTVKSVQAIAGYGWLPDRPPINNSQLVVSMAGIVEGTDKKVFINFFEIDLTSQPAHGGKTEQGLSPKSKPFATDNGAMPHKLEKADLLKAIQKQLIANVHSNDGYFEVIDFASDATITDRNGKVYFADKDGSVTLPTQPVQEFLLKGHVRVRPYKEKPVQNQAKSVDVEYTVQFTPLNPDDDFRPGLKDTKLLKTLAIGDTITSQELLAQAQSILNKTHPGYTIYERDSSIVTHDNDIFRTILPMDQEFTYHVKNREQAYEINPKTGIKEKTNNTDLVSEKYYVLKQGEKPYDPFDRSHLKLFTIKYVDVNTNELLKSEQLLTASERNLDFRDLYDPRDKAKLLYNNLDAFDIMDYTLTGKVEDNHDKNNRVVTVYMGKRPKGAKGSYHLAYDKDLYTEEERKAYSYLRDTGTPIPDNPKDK

[1] = molecular target: Multidrug resistance protein CDR1 (Candida albicans, UniProt P43071); experiment: CaCDR1 efflux pump inhibitors in yeast, dose response, S. cerevisiae AD1-8u, singleplex, Cherry Pick1 hits (AID 588606); assay type: functional
Streptococcus = experiment: Group A Streptococcus viability loss, dose response, counter-screen for streptokinase expression inhibitor project, luminescence, BacTiterGlo (AID 1915); assay type: functional, organism-based;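 note: potency for reduction of bacterial viability or growth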
[2] = microbe, parasite or virus in culture; assay type: functional; conditions: Mycobacterium tuberculosis
[3] = Luminescence Cell-Based Dose Confirmation HTS to Identify Inhibitors of Polyadenylation.; assay type: functional
[4] = tested on: Streptococcus sp. 'group A'; experiment: growth inhibition of control SK(-) GAS strain, dose response, counter-screen for streptokinase expression inhibitor project, luminescence, kanamycin, BacTiterGlo, confirmation (AID 1900); assay type: functional, organism-based
[5] = molecular target: Multidrug resistance protein CDR2 (Candida albicans (strain SC5314 / ATCC MYA-2876) (Yeast), UniProt P78595); experiment: CaCDR2 efflux pump inhibitors in yeast, dose response, S. cerevisiae AD1-8u, singleplex, Cherry Pick1 hits (AID 588604); assay type: functional
[6] = molecular target: T2, High affinity choline transporter 1 (Homo sapiens, UniProt Q9GZV3); experiment: CHT inhibitors, dose response, cell-based, 10-point CRC, membrane potential dye (AID 588401); assay type: functional;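 note: membrane potential dye fluorescence of choline-evoked depolarization via CHT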
T2 sequence (Q9GZV3 whole entry): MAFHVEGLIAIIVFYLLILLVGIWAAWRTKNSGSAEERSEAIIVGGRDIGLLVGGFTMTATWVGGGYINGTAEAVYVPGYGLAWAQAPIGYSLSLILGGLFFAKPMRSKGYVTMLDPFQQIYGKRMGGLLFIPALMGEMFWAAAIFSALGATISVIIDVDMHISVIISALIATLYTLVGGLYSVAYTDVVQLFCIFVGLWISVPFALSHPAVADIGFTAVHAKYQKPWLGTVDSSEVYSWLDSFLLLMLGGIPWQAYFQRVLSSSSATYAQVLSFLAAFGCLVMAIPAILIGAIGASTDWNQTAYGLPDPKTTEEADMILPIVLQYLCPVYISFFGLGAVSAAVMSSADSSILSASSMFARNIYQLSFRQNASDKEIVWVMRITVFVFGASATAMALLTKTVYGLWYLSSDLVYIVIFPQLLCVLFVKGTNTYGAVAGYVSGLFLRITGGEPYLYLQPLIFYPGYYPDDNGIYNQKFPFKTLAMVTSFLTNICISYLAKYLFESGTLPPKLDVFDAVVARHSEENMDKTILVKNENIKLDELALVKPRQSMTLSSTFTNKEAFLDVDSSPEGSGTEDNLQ

[7] = molecular target: T2, High affinity choline transporter 1; experiment: CHT inhibitors, dose response, cell-based, 5-point CRC, membrane potential dye (AID 504840); assay type: functional

Chain of Multidrug resistance protein CDR1 (P43071 whole entry, looked up): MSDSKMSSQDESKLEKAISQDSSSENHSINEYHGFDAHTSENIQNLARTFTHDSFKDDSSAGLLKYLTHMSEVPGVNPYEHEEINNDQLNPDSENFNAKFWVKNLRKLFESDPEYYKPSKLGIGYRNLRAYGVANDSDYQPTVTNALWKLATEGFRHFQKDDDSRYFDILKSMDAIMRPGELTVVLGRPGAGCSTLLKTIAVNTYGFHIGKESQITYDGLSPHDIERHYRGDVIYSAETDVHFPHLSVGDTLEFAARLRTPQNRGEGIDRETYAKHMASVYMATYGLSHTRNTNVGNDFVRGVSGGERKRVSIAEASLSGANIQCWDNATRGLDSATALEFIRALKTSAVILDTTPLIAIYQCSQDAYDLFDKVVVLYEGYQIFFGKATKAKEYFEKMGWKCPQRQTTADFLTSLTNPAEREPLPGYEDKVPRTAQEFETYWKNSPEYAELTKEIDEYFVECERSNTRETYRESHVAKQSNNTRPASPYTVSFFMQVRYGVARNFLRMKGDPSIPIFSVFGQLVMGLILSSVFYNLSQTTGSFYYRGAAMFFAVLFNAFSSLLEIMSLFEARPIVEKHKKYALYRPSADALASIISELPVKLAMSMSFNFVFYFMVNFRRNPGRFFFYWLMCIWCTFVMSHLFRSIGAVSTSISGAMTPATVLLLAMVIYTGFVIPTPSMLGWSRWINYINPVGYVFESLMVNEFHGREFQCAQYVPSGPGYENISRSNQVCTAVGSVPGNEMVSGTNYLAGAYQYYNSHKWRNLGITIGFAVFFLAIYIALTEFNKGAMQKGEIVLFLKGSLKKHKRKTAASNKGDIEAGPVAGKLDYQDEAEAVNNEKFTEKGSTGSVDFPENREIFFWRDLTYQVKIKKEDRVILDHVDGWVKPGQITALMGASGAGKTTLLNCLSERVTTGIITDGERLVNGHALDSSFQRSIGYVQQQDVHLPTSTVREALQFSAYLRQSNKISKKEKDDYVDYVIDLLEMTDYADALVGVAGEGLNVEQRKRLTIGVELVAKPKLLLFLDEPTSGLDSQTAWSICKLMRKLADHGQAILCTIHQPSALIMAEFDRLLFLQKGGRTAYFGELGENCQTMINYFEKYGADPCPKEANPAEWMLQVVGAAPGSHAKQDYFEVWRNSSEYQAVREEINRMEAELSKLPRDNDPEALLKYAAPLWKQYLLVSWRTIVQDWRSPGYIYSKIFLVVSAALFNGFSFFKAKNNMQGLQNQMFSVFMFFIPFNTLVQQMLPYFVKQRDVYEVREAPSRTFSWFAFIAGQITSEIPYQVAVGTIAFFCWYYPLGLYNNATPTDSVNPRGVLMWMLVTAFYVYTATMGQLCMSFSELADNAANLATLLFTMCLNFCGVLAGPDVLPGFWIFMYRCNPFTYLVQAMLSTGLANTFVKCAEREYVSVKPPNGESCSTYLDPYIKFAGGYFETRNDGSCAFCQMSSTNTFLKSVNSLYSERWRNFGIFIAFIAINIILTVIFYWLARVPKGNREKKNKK
Chain of Multidrug resistance protein CDR2 (P78595 whole entry): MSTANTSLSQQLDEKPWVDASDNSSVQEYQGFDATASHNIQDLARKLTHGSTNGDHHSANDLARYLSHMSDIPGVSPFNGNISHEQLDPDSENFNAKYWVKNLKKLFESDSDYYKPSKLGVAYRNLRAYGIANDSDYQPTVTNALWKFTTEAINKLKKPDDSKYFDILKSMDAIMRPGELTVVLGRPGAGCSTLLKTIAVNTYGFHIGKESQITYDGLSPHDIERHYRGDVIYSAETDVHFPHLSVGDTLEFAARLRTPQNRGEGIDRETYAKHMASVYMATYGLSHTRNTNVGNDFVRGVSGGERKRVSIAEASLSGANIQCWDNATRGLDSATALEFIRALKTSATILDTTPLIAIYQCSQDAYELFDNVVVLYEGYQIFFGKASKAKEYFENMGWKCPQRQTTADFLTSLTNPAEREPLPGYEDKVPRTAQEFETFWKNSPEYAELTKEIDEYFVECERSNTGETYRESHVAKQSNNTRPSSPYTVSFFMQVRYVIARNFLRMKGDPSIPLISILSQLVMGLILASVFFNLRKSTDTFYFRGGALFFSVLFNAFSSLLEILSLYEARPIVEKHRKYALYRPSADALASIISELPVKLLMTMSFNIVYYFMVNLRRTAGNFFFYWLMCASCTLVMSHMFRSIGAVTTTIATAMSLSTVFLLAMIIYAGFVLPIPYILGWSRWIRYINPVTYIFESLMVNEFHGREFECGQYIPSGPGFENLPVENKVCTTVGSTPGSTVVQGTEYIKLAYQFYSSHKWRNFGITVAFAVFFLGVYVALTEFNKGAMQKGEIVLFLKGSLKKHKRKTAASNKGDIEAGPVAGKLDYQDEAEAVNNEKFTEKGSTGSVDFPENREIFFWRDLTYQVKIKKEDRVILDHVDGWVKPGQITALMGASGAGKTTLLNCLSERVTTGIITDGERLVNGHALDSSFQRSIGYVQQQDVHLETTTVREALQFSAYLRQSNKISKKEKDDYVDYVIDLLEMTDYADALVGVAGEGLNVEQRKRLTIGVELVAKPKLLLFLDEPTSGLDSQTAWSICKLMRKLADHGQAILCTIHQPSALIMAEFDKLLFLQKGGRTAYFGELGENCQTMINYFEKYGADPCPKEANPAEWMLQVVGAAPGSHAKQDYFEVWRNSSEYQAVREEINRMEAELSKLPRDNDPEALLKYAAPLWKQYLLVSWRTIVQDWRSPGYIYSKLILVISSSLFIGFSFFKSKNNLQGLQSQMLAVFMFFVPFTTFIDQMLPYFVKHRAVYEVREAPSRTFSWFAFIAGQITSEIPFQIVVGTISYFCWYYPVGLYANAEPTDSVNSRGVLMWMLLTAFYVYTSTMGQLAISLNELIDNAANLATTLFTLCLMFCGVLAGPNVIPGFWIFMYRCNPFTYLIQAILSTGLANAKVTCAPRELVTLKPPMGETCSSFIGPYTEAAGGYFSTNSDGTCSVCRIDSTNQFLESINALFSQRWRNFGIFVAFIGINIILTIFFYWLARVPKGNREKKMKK

Structure (SMILES) | EC50 (Streptokinase A) | EC50 [1] | EC50 (Streptococcus) | CC50 [2] | EC50 [3] | EC50 [4] | EC50 [5] | IC50 [6] | IC50 [7]
CCc1ccc(NC2=NC(=O)/C(=C/c3cc(OC)c(O)c(OC)c3)S2)cc1 | > 150 µM (not active) | 6.05 µM (active) | 28.2 µM (active) | > 40 µM (active) | 10.5 µM (active) | 2.67 µM (active) | 19.2 µM (active) |  | 
Cc1nn2c(N3CCN(CCO)CC3)c3c(nc2c1-c1ccccc1)CCCC3 |  |  |  |  |  |  |  | 4.74 µM (active) | 6.95 µM (active)
